Measurements reported in patent US20140105921A1, “Prodrugs of Peptide Epoxy Ketone Protease Inhibitors” (Onyx Therapeutics, Inc., priority 2012, published 2014).
Read-outs that look alike come from different tables or passages of the source.

Columns and labels:
c20s = c20s (Homo sapiens, UniProt P20618+P28074); test: Purified PI, IC50 against c20s; assay type: biochemical
i20s = i20s (Homo sapiens, UniProt P20618+P28062); test: Purified PI, IC50 against i20s; assay type: biochemical
[1] = Conversion of Prodrugs by Human Liver S9; assay type: in vitro ADME
[2] = Buffer Conversion Rates of Prodrugs to Compound B; assay type: physicochemical
[3] = In vivo mouse PK of Compound A and PEG prodrugs; conditions: for [Cmpd A]: BLOQ = below level of quantitation
[4] = Table G, read-out: IC50 Slope c20s
[5] = Table G, read-out: IC50 Slope i20s
[6] = Table H, read-out: IC50 Slope c20s
[7] = IC50 60 minute point c20s, Table H, 60 minute point
[8] = IC50 60 minute point i20s, Table H, 60 minute point
[9] = Table H, read-out: IC50 Slope i20s
[10] = Table G, value marked *: did not converge, read-out: IC50 Slope c20s
[11] = Table G, value marked *: did not converge, read-out: IC50 Slope i20s

CC(C)C[C@H](NC(=O)[C@H](CCc1ccccc1)NC(=O)CN1CCOCC1)C(=O)N[C@@H](Cc1ccccc1)C(=O)N[C@@H](CC(C)C)/C(=N/OCc1ccccc1)[C@@]1(C)CO1
IC50 (c20s; [4]): 539 nM | IC50 (i20s; [5]): 2180 nM

COC[C@H](NC(=O)c1cnc(C)s1)C(=O)N[C@@H](COC)C(=O)N[C@@H](Cc1ccccc1)C(=O)[C@@](C)(CI)OC(=O)CCCOC(C)=O [20-13]
Human Liver S9 % Conversion @ 1 hour [1]: 11%

COC[C@H](NC(=O)c1cnc(C)s1)C(=O)N[C@@H](COC)C(=O)N[C@@H](Cc1ccccc1)/C(=N/OC)[C@@]1(C)CO1
IC50 (c20s; IC50 60 minute point c20s, Table H, 60 minute point, value marked * (Table G: did not converge)): 2560 nM | IC50 60 minute point i20s (i20s; Table H, 60 minute point): inactive

COC[C@H](NC(=O)c1cnc(C)s1)C(=O)N[C@@H](COC)C(=O)N[C@@H](Cc1ccccc1)C(=O)[C@](C)(O)COS(=O)(=O)Cc1ccccc1 [drawing 374]
IC50 (c20s; [6]): 95.4 nM

COC[C@H](NC(=O)c1cnc(C)s1)C(=O)N[C@@H](COC)C(=O)N[C@@H](Cc1ccccc1)C(=O)[C@](C)(O)COS(=O)(=O)Cc1ccccc1 [compound 23]
Buffer pH = 7.4 % Conversion @ 1 hour [2]: 9.6%

COC[C@H](NC(=O)c1cnc(C)s1)C(=O)N[C@@H](COC)C(=O)N[C@@H](Cc1ccccc1)C(=O)[C@](C)(O)COS(=O)(=O)C1CCOCC1 [compound 22]
Buffer pH = 7.4 % Conversion @ 1 hour [2]: 9.8%

COC[C@H](NC(=O)c1cnc(C)s1)C(=O)N[C@@H](COC)C(=O)N[C@@H](Cc1ccccc1)C(=O)[C@](C)(O)COS(=O)(=O)c1ccc(C)cc1
IC50 (c20s; [7]): 748 nM | IC50 (c20s; [6]): 141 nM | IC50 (i20s; [8]): 637 nM | IC50 (i20s; [9]): 252 nM

COC[C@H](NC(=O)c1cnc(C)s1)C(=O)N[C@@H](COC)C(=O)N[C@@H](Cc1ccccc1)C(=O)[C@](C)(O)COS(C)(=O)=O
IC50 (c20s; [7]): 459 nM | IC50 (c20s; [6]): 103 nM | IC50 (i20s; [8]): 614 nM | IC50 (i20s; [9]): 179 nM

CC(C)C[C@H](NC(=O)[C@H](CCc1ccccc1)NC(=O)CN1CCOCC1)C(=O)N[C@@H](Cc1ccccc1)C(=O)N[C@@H](CC(C)C)/C(=N/O)[C@@]1(C)CO1
IC50 (c20s; [10]): 279 nM | IC50 (i20s; [11]): 2290 nM

CCOC(=O)CCC(=O)O[C@](C)(CI)C(=O)[C@H](Cc1ccccc1)NC(=O)[C@H](COC)NC(=O)[C@H](COC)NC(=O)c1cnc(C)s1 [20-17]
Human Liver S9 % Conversion @ 1 hour [1]: 1%

CCOC(=O)C(=O)O[C@](C)(CI)C(=O)[C@H](Cc1ccccc1)NC(=O)[C@H](COC)NC(=O)[C@H](COC)NC(=O)c1cnc(C)s1 [20-16]
Human Liver S9 % Conversion @ 1 hour [1]: 24%

COC[C@H](NC(=O)c1cnc(C)s1)C(=O)N[C@@H](COC)C(=O)N[C@@H](Cc1ccccc1)C(=O)[C@@](C)(CI)OC(=O)OCc1oc(=O)oc1C [20-15]
Human Liver S9 % Conversion @ 1 hour [1]: 30%

COC[C@H](NC(=O)c1cnc(C)s1)C(=O)N[C@@H](COC)C(=O)N[C@@H](Cc1ccccc1)C(=O)[C@](C)(O)COC(=O)c1c(Cl)cccc1Cl
IC50 60 minute point c20s (c20s; Table H, 60 minute point): inactive | IC50 60 minute point i20s (i20s; Table H, 60 minute point): inactive

COC[C@H](NC(=O)c1cnc(C)s1)C(=O)N[C@@H](COC)C(=O)N[C@@H](Cc1ccccc1)C(=O)[C@](C)(O)COS(=O)(=O)C1CCOCC1 [drawing 373]
IC50 (c20s; [6]): 193 nM | IC50 (i20s; Table H, value marked * (Table G: did not converge), read-out: IC50 Slope i20s): 278 nM

COC[C@H](NC(=O)c1cnc(C)s1)C(=O)N[C@@H](COC)C(=O)N[C@@H](Cc1ccccc1)C(=O)[C@@](C)(CI)OC(=O)CCCCSC(C)=O [20-10]
Human Liver S9 % Conversion @ 1 hour [1]: 3%

COC[C@H](NC(=O)c1cnc(C)s1)C(=O)N[C@@H](COC)C(=O)N[C@@H](Cc1ccccc1)C(=O)[C@@](C)(CI)OC(=O)COc1ccccc1 [20-19]
Human Liver S9 % Conversion @ 1 hour [1]: 7%

COC[C@H](NC(=O)c1cnc(C)s1)C(=O)N[C@@H](COC)C(=O)N[C@@H](Cc1ccccc1)C(=O)[C@](C)(O)COS(=O)(=O)CC(F)F [20-6]
Buffer pH = 7.4 % Conversion @ 1 hour [2]: 5.7%

COC[C@H](NC(=O)c1cnc(C)s1)C(=O)N[C@@H](COC)C(=O)N[C@@H](Cc1ccccc1)C(=O)[C@@](C)(CI)OC(=O)Oc1ccccc1 [20-26]
Human Liver S9 % Conversion @ 1 hour [1]: 32%

COC[C@H](NC(=O)c1cnc(C)s1)C(=O)N[C@@H](COC)C(=O)N[C@@H](Cc1ccccc1)C(=O)[C@](C)(O)CBr [20-3]
Buffer pH = 7.4 % Conversion @ 1 hour [2]: 23%

COC[C@H](NC(=O)c1cnc(C)s1)C(=O)N[C@@H](COC)C(=O)N[C@@H](Cc1ccccc1)C(=O)[C@](C)(O)COP(=O)(c1ccccc1)c1ccccc1
IC50 60 minute point c20s (c20s; Table H, 60 minute point): inactive | IC50 60 minute point i20s (i20s; Table H, 60 minute point): inactive

CC(C)C[C@H](NC(=O)[C@H](CCc1ccccc1)NC(=O)CN1CCOCC1)C(=O)N[C@@H](Cc1ccccc1)C(=O)N[C@@H](CC(C)C)C(=O)[C@@]1(C)CO1 [Cmpd A, (S)-4-methyl-N—((S)-1-(((S)-4-methyl-1-((R)-2-methyloxiran-2-yl)-1-oxopentan-2-yl)amino)-1-oxo-3-phenylpropan-2-yl)-2-((S)-2-(2-morpholinoacetamido)-4-phenylbutanamido)pentanamide]
[Cmpd A] ([3]; Time 4 hr): BLOQ | [Cmpd A] ([3]; Time 6 hr): BLOQ | [Cmpd A] ([3]; Time 24 hr): BLOQ | concentration at 1 hr ([3]; plasma, Time 1 hr, read-out: [Cmpd A]): 8 nM

CCCCS(=O)(=O)OC[C@@](C)(O)C(=O)[C@H](Cc1ccccc1)NC(=O)[C@H](COC)NC(=O)[C@H](COC)NC(=O)c1cnc(C)s1 [20-7]
Buffer pH = 7.4 % Conversion @ 1 hour [2]: 4.2%

Cc1ccc(S(=O)(=O)OC[C@@](C)(O)C(=O)[C@H](CC(C)C)NC(=O)[C@H](Cc2ccccc2)NC(=O)[C@H](CC(C)C)NC(=O)[C@H](CCc2ccccc2)NC(=O)CN2CCOCC2)cc1
IC50 (c20s; [4]): 73.7 nM | IC50 (i20s; [5]): 316 nM

CC(C)C[C@H](NC(=O)[C@H](CCc1ccccc1)NC(=O)CN1CCOCC1)C(=O)N[C@@H](Cc1ccccc1)C(=O)N[C@@H](CC(C)C)C(=O)[C@](C)(O)COC(=O)c1c(Cl)cccc1Cl
IC50 (i20s; [5]): 660 nM

COCCOCCOCCOCCC(=O)N/N=C(/[C@H](CC(C)C)NC(=O)[C@H](Cc1ccccc1)NC(=O)[C@H](CC(C)C)NC(=O)[C@H](CCc1ccccc1)NC(=O)CN1CCOCC1)[C@@]1(C)CO1
IC50 (i20s; [11]): 3240 nM

CC(C)C[C@H](NC(=O)[C@H](CCc1ccccc1)NC(=O)C[N+]1(COC(=O)C(C)(C)C)CCOCC1)C(=O)N[C@@H](Cc1ccccc1)C(=O)N[C@@H](CC(C)C)C(=O)[C@@]1(C)CO1
IC50 (c20s; [4]): 8.91 nM | IC50 (i20s; [5]): 49.8 nM

COC[C@H](NC(=O)c1cnc(C)s1)C(=O)N[C@@H](COC)C(=O)N[C@@H](Cc1ccccc1)C(=O)[C@@](C)(CI)OC=O [20-24]
Human Liver S9 % Conversion @ 1 hour [1]: 29%

COC[C@H](NC(=O)c1cnc(C)s1)C(=O)N[C@@H](COC)C(=O)N[C@@H](Cc1ccccc1)C(=O)[C@@](C)(CI)OC(=O)CCl [20-23]
Human Liver S9 % Conversion @ 1 hour [1]: 22%

CO/N=C(/[C@H](CC(C)C)NC(=O)[C@H](Cc1ccccc1)NC(=O)[C@H](CC(C)C)NC(=O)[C@H](CCc1ccccc1)NC(=O)CN1CCOCC1)[C@@]1(C)CO1
IC50 (c20s; [10]): 2610 nM

CC(=O)OC[C@@](C)(O)C(=O)[C@H](CC(C)C)NC(=O)[C@H](Cc1ccccc1)NC(=O)[C@H](CC(C)C)NC(=O)[C@H](CCc1ccccc1)NC(=O)CN1CCOCC1
IC50 (c20s; [10]): 2440 nM | IC50 (i20s; [5]): 8190 nM

COC[C@H](NC(=O)c1cnc(C)s1)C(=O)N[C@@H](COC)C(=O)N[C@@H](Cc1ccccc1)C(=O)[C@](C)(O)COC(C)=O
IC50 60 minute point c20s (c20s; Table H, 60 minute point): inactive | IC50 60 minute point i20s (i20s; Table H, 60 minute point): inactive

COC[C@H](NC(=O)c1cnc(C)s1)C(=O)N[C@@H](COC)C(=O)N[C@@H](Cc1ccccc1)C(=O)[C@@](C)(CI)OC(=O)OCc1ccc(OC(C)=O)cc1 [20-22]
Human Liver S9 % Conversion @ 1 hour [1]: 28%

CC(C)C[C@H](NC(=O)[C@H](CCc1ccccc1)NC(=O)CN1CCOCC1)C(=O)N[C@@H](Cc1ccccc1)C(=O)N[C@@H](CC(C)C)C(=O)[C@](C)(O)CCl
IC50 (c20s; [4]): 615 nM | IC50 (i20s; [5]): 143 nM

COC[C@H](NC(=O)c1cnc(C)s1)C(=O)N[C@@H](COC)C(=O)N[C@@H](Cc1ccccc1)C(=O)[C@](C)(O)CCl [20-2]
Buffer pH = 7.4 % Conversion @ 1 hour [2]: 0%

CC(C)C[C@H](NC(=O)[C@H](CCc1ccccc1)NC(=O)CN1CCOCC1)C(=O)N[C@@H](Cc1ccccc1)C(=O)N[C@@H](CC(C)C)C(=O)[C@](C)(O)COP(=O)(c1ccccc1)c1ccccc1
IC50 (c20s; [4]): 2670 nM | IC50 (i20s; [11]): 2550 nM

CCOC(=O)O[C@](C)(CI)C(=O)[C@H](Cc1ccccc1)NC(=O)[C@H](COC)NC(=O)[C@H](COC)NC(=O)c1cnc(C)s1 [20-25]
Human Liver S9 % Conversion @ 1 hour [1]: 14%

COC[C@H](NC(=O)c1cnc(C)s1)C(=O)N[C@@H](COC)C(=O)N[C@@H](Cc1ccccc1)C(=O)[C@](C)(O)CI [20-1]
Buffer pH = 7.4 % Conversion @ 1 hour [2]: 24%

CC(C)C[C@H](NC(=O)[C@H](CCc1ccccc1)NC(=O)CN1CCOCC1)C(=O)N[C@@H](Cc1ccccc1)C(=O)N[C@@H](CC(C)C)C(=O)[C@](C)(O)COS(C)(=O)=O
IC50 (c20s; [4]): 37.7 nM | IC50 (i20s; [5]): 98.7 nM

CC(C)C[C@H](NC(=O)[C@H](CCc1ccccc1)NC(=O)CN1CCOCC1)C(=O)N[C@@H](Cc1ccccc1)C(=O)N[C@@H](CC(C)C)C(=O)[C@](C)(O)COn1nnc2ccccc21
IC50 (c20s; [10]): 2470 nM | IC50 (i20s; [11]): 2820 nM

CC(=O)N/N=C(/[C@H](CC(C)C)NC(=O)[C@H](Cc1ccccc1)NC(=O)[C@H](CC(C)C)NC(=O)[C@H](CCc1ccccc1)NC(=O)CN1CCOCC1)[C@@]1(C)CO1
IC50 (c20s; [4]): 678 nM | IC50 (i20s; [11]): 2180 nM
